From the supplement of paper PMC4862054

Assays:
Conditions in all cases: incubation time: 72 h
CAL-148 [1] = experiment: normalised response (% of control), CellTox Green; higher = less cell death (100 = DMSO, 0 = benzethonium chloride kill control)
Summary of the method: (§1)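 Values are normalised signals, each belonging to one concentration of the series. Breast cancer cells (20 µl suspension) were seeded into 384-well plates with compound at 5 concentrations in 10-fold steps over a compound-specific 10,000-fold range and incubated 72 h. Readouts were CellTox Green fluorescence (485/520 nm), then CellTiter-Glo luminescence after 10 min at room temperature, with each plate set to 0.1 % DMSO as 100 and a positive kill control as 0.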

CAL-85-1 [2] = experiment: as above
Summary of the method: as §1

BT-549 [3] = experiment: as above
Summary of the method: as §1

HDQ-P1 [4] = experiment: as above
Summary of the method: as §1

MDA-MB-453 [5] = experiment: as above
Summary of the method: as §1

HCC1143 [6] = experiment: as above
Summary of the method: as §1

Hs578T [7] = experiment: as above
Summary of the method: as §1

DU-4475 [8] = experiment: as above
Summary of the method: as §1

HCC1937 [9] = experiment: as above
Summary of the method: as §1

CAL-120 [10] = experiment: as above
Summary of the method: as §1

MCF-10A [11] = experiment: as above
Summary of the method: as §1

MDA-MB-436 [12] = experiment: as above
Summary of the method: as §1

MDA-MB-231 [13] = experiment: as above
Summary of the method: as §1

BT-474 [14] = experiment: as above
Summary of the method: as §1

HCC1599 [15] = experiment: as above
Summary of the method: as §1

MFM-223 [16] = experiment: as above
Summary of the method: as §1

MDA-MB-468 [17] = experiment: as above
Summary of the method: as §1

CAL-51 [18] = experiment: as above
Summary of the method: as §1

CAL-148 [19] = experiment: normalised response (% of control), CellTiter-Glo; higher = more viable cells (100 = DMSO, 0 = benzethonium chloride kill control)
Experimental: (§2)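 DSRT, 72 h incubation, CellTox Green / CellTiter-Glo readout. Signal is normalised to DMSO and benzethonium chloride controls. Value is the normalised response at dose 3.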

CAL-85-1 [20] = experiment: as above
Experimental: as §2

BT-549 [21] = experiment: as above
Experimental: as §2

SK-BR-3 = experiment: as above
Experimental: as §2

HDQ-P1 [22] = experiment: as above
Experimental: as §2

MDA-MB-453 [23] = experiment: as above
Experimental: as §2

HCC1143 [24] = experiment: as above
Experimental: as §2

Hs578T [25] = experiment: as above
Experimental: as §2

DU-4475 [26] = experiment: as above
Experimental: as §2

HCC1937 [27] = experiment: as above
Experimental: as §2

CAL-120 [28] = experiment: as above
Experimental: as §2

MCF-10A [29] = experiment: as above
Experimental: as §2

MDA-MB-436 [30] = experiment: as above
Experimental: as §2

MDA-MB-231 [31] = experiment: as above
Experimental: as §2

BT-474 [32] = experiment: as above
Experimental: as §2

HCC1599 [33] = experiment: as above
Experimental: as §2

MFM-223 [34] = experiment: as above
Experimental: as §2

MDA-MB-468 [35] = experiment: as above
Experimental: as §2

CAL-51 [36] = experiment: as above
Experimental: as §2

SMILES | normalised response (CAL-148 [1]) [%] | normalised response (CAL-85-1 [2]) [%] | normalised response (BT-549 [3]) [%] | normalised response (HDQ-P1 [4]) [%] | normalised response (MDA-MB-453 [5]) [%] | normalised response (HCC1143 [6]) [%] | normalised response (Hs578T [7]) [%] | normalised response (DU-4475 [8]) [%] | normalised response (HCC1937 [9]) [%] | normalised response (CAL-120 [10]) [%] | normalised response (MCF-10A [11]) [%] | normalised response (MDA-MB-436 [12]) [%] | normalised response (MDA-MB-231 [13]) [%] | normalised response (BT-474 [14]) [%] | normalised response (HCC1599 [15]) [%] | normalised response (MFM-223 [16]) [%] | normalised response (MDA-MB-468 [17]) [%] | normalised response (CAL-51 [18]) [%] | normalised response (CAL-148 [19]) [%] | normalised response (CAL-85-1 [20]) [%] | normalised response (BT-549 [21]) [%] | normalised response (SK-BR-3) [%] | normalised response (HDQ-P1 [22]) [%] | normalised response (MDA-MB-453 [23]) [%] | normalised response (HCC1143 [24]) [%] | normalised response (Hs578T [25]) [%] | normalised response (DU-4475 [26]) [%] | normalised response (HCC1937 [27]) [%] | normalised response (CAL-120 [28]) [%] | normalised response (MCF-10A [29]) [%] | normalised response (MDA-MB-436 [30]) [%] | normalised response (MDA-MB-231 [31]) [%] | normalised response (BT-474 [32]) [%] | normalised response (HCC1599 [33]) [%] | normalised response (MFM-223 [34]) [%] | normalised response (MDA-MB-468 [35]) [%] | normalised response (CAL-51 [36]) [%]
COc1ncc(-c2ccc3nccc(-c4ccnnc4)c3c2)cc1NS(=O)(=O)c1ccc(F)cc1F (10 nM) | 91.5 | 81.9 | 106 | 89.5 | 102 | 107 | 95 | 101 | 96.1 | 102 | 110 | 106 | 106 | 93.4 | 112 | 96.3 | 68.8 | 104 | 96.1 | 69.5 | 72.7 | 53 | 60.7 | 63.3 | 85.2 | 77.5 | 93.1 | 78.7 | 75.7 | 63.7 | 84.6 | 82 | 78.3 | 83.4 | 82.7 | 80.2 | 77.2
O=c1[nH]cc(F)c(=O)[nH]1 [Fluorouracil] (100 nM) | 102 | 114 | 96.8 | 105 | 106 | 92.6 | 101 | 106 | 103 | 100 | 114 | 51.5 | 111 | 93 | 103 | 106 | 99.4 | 113 | 111 | 98.3 | 109 | 104 | 102 | 116 | 109 | 105 | 102 | 95.6 | 107 | 113 | 105 | 111 | 103 | 116 | 104 | 98 | 105
COc1cc(Nc2ncc(F)c(Nc3ccc4c(n3)NC(=O)C(C)(C)O4)n2)cc(OC)c1OC [Tamatinib] (100 nM) | 73.6 | 113 | 94.5 | 107 | 109 | 90.7 | 112 | 104 | 93.6 | 103 | 107 | 104 | 105 | 101 | 99.2 | 91.3 | 83.2 | 115 | 112 | 96.7 | 98.9 | 111 | 97.9 | 108 | 105 | 102 | 105 | 103 | 96.2 | 104 | 99 | 108 | 101 | 123 | 110 | 93.8 | 104
COC1=CC(c2cc3ccccc3[nH]2)=N/C1=C\c1[nH]c(C)cc1C [Obatoclax] (100 nM) | 103 | 87.6 | 103 | 53.7 | 104 | 89.8 | 84.5 | 98.6 | 88.3 | 95 | 93.4 |  | 66.7 | 63 | 98.6 | 93.8 | 96.5 | 88.2 | 86 | 89.2 | 97.5 | 90.5 | 99.6 | 104 | 93.5 | 92.6 | 99.5 | 91.3 | 98.1 | 97.3 | 91.4 | 88.4 | 88.8 | 93 | 96.3 | 88.4 | 87.8
COc1c(C)cnc(Cn2cnc3c(Cl)nc(N)nc32)c1C [BIIB021] (100 nM) | 62.7 | 78.5 | 114 | 109 | 98.5 | 107 | 107 | 103 | 88.4 | 101 | 91.5 | 82 | 107 | 95.7 | 109 | 97 | 108 | 122 | 88.7 | 90.8 | 65.9 | 45 | 81.7 | 81.4 | 97.9 | 101 | 101 | 82.1 | 85.9 | 100 | 82.6 | 109 | 106 | 85 | 82.7 | 81.6 | 82.7
CC(=O)O[C@H]1C(=O)[C@@]2(C)[C@H]([C@H](OC(=O)c3ccccc3)[C@]3(O)C[C@H](OC(=O)[C@H](O)[C@@H](NC(=O)c4ccccc4)c4ccccc4)C(C)=C1C3(C)C)[C@]1(OC(C)=O)CO[C@@H]1C[C@@H]2O [Paclitaxel] (10 nM) | 39.4 | 20.9 | 72.5 | 87.9 | 92.9 | 88.4 | 34.1 | 97.6 | 86.7 | 89.9 | 78.9 | -40.2 | 41 | 74.6 | 91.5 | 59.4 | 41.3 | 19.9 | 42.7 | 31 | 34 | 16.9 | 69.1 | 80.2 | 42.3 | 43.3 | 89 | 68.2 | 70.1 | 52.6 | 43 | 62.9 | 60.3 | 80.5 | 61.6 | 28.7 | 52.7
C[C@@]1(C(=O)Nc2ccc(F)nc2)CCCN1c1nc(Nc2cc(C3CC3)n[nH]2)c2cccn2n1 (100 nM) | 96.3 | 85.8 | 90.2 | 89 | 95.8 | 87.5 | 89.5 | 94.4 | 103 | 100 | 76.1 | 99.2 | 78.5 | 95.3 | 98 | 104 | 71.9 | 104 | 102 | 74.9 | 86.5 | 83.2 | 64.2 | 80 | 91.9 | 92.7 | 82.2 | 90.7 | 82.9 | 28.7 | 86.9 | 79.8 | 79.5 | 82.8 | 84.5 | 87.8 | 106
C[C@@H]1C=C2C(=O)O[C@@H]3CC[C@H](C1)[C@]23O [Galiellalactone] (500 nM) | 99.8 | 93.5 | 89.4 | 110 | 104 | 73.3 | 105 | 105 | 100 | 103 | 104 |  | 114 | 99.7 | 116 | 96.2 | 126 | 115 | 120 | 100 | 101 | 108 | 103 | 105 | 109 | 104 | 103 | 107 | 106 | 109 | 101 | 110 | 102 | 101 | 110 | 101 | 109
C#Cc1cccc(Nc2ncnc3cc(OC)c(OCCCCCCC(=O)NO)cc23)c1 [CUDC-101] (100 nM) | 82.4 | 93.8 | 115 | 109 | 101 | 111 | 73.6 | 97 | 89.5 | 84.2 | 101 |  | 70.3 | 97 | 103 | 103 | 106 | 82.4 | 95.5 | 78.5 | 105 | 84.2 | 84 | 60.1 | 90.9 | 94.7 | 96.3 | 93.4 | 93.3 | 65.4 | 96.8 | 90.9 | 91.8 | 105 | 78.2 | 74.1 | 62.1
